In ChEMBL document CHEMBL2074419, “Induction of multidrug resistance protein 3 in rat liver is associated with altered vectorial excretion of acetaminophen metabolites” (Drug Metab Dispos, 2003):

Columns and labels:
Type in all cases: functional, organism-based, Sprague-Dawley
[1] = target: T1, ATP-binding cassette sub-family C member 3 (Rattus norvegicus, UniProt O88563); experiment: (§1) TP_TRANSPORTER: Western in vivo, liver of SD rat
[2] = target: T2, ATP-binding cassette sub-family C member 2 (Rattus norvegicus, UniProt Q63120); experiment: as §1
[3] = target: T1, ATP-binding cassette sub-family C member 3; experiment: (§2) TP_TRANSPORTER: quantitative PCR in vivo, liver of SD rat
[4] = target: T2, ATP-binding cassette sub-family C member 2; experiment: as §2
[5] = target: T3, ATP-binding cassette subfamily C member 4 (Rattus norvegicus, UniProt F1M3J4); experiment: as §2
T3 sequence (F1M3J4 whole entry): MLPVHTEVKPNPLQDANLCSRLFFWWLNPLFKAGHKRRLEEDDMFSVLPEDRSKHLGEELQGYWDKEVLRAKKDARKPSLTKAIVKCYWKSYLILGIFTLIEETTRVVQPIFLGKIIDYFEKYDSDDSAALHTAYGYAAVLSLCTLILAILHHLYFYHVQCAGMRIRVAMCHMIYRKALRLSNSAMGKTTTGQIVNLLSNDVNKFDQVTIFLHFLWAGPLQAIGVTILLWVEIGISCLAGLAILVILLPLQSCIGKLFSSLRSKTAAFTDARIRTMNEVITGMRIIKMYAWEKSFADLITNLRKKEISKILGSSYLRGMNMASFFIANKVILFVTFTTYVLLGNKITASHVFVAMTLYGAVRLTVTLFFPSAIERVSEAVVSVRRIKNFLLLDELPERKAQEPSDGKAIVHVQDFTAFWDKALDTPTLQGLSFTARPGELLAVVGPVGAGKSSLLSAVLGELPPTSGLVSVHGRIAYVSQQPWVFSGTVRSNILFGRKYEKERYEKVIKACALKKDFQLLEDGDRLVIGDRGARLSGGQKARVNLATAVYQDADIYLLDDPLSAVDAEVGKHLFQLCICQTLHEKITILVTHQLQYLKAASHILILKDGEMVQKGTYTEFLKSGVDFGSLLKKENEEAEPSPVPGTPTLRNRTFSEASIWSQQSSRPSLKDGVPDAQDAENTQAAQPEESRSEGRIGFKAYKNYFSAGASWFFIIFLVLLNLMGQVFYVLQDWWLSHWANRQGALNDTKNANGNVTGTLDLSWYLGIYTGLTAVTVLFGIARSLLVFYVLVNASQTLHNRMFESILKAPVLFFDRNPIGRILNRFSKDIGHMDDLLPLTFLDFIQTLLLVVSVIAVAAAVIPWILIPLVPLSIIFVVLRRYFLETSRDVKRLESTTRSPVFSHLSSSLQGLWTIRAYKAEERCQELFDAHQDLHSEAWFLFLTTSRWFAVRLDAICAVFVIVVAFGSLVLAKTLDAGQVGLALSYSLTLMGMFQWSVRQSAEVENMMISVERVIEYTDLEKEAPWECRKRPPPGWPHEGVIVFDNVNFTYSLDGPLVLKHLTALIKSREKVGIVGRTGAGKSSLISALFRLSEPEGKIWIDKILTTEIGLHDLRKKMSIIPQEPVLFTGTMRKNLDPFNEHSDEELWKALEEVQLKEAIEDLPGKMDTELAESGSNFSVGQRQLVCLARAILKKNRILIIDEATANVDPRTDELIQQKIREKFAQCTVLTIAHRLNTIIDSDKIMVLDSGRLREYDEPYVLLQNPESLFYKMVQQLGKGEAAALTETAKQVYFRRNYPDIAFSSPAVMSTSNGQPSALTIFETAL

[6] = target: T1, ATP-binding cassette sub-family C member 3; experiment: (§3) TP_TRANSPORTER: quantitative PCR in vivo, kidney of SD rat
[7] = target: T2, ATP-binding cassette sub-family C member 2; experiment: as §3
[8] = target: T3, ATP-binding cassette subfamily C member 4; experiment: as §3

Measured: Activity

T1 sequence (O88563 whole entry): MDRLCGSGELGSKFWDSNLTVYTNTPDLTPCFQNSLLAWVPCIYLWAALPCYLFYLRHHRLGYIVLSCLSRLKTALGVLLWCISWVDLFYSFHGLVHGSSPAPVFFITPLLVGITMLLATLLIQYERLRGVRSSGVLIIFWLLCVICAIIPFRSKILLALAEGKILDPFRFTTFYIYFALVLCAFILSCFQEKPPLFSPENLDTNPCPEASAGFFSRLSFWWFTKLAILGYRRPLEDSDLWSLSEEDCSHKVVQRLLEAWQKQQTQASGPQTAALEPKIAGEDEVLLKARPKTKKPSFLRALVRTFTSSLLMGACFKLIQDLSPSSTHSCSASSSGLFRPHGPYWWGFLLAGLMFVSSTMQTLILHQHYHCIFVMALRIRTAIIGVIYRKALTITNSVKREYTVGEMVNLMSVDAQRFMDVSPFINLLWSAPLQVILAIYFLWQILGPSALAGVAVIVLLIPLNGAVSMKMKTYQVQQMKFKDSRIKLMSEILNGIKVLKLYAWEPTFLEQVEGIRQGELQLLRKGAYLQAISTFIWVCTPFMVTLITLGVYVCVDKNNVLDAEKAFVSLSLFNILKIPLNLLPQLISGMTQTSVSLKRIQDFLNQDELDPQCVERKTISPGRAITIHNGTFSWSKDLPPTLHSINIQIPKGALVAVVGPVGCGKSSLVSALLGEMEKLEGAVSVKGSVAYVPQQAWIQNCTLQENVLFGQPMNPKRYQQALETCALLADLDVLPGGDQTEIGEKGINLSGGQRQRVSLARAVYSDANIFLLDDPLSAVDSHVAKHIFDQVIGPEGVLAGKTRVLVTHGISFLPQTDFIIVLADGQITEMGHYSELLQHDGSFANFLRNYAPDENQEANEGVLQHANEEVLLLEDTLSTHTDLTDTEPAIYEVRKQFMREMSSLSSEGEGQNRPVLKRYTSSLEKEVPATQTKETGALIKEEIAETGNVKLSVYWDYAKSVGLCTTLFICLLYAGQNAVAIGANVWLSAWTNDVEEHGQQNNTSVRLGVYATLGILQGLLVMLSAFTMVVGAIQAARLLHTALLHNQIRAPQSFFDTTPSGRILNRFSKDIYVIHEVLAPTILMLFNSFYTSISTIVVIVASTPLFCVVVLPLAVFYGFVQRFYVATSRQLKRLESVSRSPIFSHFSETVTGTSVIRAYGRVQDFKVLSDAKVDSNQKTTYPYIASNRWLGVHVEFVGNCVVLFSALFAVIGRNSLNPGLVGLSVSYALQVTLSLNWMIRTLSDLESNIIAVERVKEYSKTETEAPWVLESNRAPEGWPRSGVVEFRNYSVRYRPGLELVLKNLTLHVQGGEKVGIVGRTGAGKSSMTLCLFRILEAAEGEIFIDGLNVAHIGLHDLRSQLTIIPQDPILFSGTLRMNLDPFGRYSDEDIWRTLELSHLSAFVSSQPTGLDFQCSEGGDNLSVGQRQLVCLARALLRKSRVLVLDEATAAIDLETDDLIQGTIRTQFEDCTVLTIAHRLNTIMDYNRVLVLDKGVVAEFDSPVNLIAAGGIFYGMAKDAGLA
T2 sequence (Q63120 whole entry): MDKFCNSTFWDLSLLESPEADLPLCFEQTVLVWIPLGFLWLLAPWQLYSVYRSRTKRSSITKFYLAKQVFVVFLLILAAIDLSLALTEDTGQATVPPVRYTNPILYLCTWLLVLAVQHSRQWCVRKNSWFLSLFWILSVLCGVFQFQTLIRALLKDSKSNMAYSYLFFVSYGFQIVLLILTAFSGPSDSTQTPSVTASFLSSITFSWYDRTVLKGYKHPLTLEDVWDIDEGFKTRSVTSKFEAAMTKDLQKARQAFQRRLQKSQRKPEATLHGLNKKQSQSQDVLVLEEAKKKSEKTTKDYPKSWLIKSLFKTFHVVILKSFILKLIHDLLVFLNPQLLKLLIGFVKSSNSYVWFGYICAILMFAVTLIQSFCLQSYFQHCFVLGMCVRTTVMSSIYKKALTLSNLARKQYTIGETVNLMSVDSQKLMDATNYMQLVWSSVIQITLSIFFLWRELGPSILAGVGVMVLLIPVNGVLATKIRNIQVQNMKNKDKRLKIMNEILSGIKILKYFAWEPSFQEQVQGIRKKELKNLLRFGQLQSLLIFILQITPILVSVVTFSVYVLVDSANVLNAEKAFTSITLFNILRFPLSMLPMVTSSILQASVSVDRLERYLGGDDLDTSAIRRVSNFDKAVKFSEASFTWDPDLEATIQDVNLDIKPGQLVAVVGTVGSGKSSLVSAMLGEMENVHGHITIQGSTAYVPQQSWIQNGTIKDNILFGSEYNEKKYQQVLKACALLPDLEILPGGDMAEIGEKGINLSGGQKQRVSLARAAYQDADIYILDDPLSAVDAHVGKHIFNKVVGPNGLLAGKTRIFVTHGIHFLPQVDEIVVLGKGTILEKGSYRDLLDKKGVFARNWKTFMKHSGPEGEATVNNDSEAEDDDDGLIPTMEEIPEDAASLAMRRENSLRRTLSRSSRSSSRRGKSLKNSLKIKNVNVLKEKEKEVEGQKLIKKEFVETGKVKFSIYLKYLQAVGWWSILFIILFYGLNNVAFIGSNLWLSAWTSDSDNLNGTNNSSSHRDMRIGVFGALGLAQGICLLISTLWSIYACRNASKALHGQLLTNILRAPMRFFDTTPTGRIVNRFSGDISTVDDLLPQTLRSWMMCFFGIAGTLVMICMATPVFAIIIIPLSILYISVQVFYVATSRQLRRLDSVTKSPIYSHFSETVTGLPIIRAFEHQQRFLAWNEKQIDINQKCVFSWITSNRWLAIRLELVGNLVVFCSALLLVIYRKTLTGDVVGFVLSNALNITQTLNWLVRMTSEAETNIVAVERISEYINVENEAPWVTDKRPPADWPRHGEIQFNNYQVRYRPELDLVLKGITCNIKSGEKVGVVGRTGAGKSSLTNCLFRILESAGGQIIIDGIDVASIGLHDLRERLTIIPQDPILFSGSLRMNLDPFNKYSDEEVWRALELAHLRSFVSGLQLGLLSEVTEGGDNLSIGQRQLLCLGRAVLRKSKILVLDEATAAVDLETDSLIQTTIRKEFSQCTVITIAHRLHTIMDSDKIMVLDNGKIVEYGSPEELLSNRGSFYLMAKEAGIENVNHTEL

c1ccc([C@H]2O[C@@H]2c2ccccc2)cc1 (relative stereo)
inducer []: [1] | [2] | [3] | [4] | [5]

C=CCSCC=C [DIALLYL SULFIDE]
not listed: [4]
inducer []: all other assays above

Cc1c(-c2cnccn2)ssc1=S [OLTIPRAZ]
inducer []: [6] | [1] | [2] | [3] | [4]

CCC1(c2ccccc2)C(=O)NC(=O)NC1=O [PHENOBARBITAL]
inducer []: [1] | [3]
